In patent US11787766B2, “Compound having PD-L1 inhibitory activity, preparation method therefor and use thereof” (SHANGHAI ENNOVABIO PHARMACEUTICALS CO., LTD., priority 2017, dated 2023):

The compounds below were run against PD-L1 (Homo sapiens (Human), UniProt Q9NZQ7) (assay: PD-1/PD-L1 homogeneous time-resolved fluorescence (HTRF) binding assay). Details: Cisbio PD1/PD-L1 binding assay kit.
Description: PD-1/PD-L1 homogeneous time-resolved fluorescence (HTRF) detection technology was used to detect the binding ability of the compound to PD-L1.
PD1/PD-L1 binding assay kit (Cisbio, Cat #63ADK000CPDEC) was used, which includes two proteins, Tag 1-PD-L1 and Tag 2-PD-1, and two antibodies, Anti-Tag1-Eu^3+ and Anti-Tag2-XL 665. Assay principle: Anti-tag1-Eu^3+ is the HTRF donor, and Anti-Tag2-XL 665 is the HTRF acceptor. When Tag 1-PD-L1 and Tag 2-PD-1 interact, the added HTRF donor and the acceptor are close to each other. After the donor receives the excitation energy, it transfers part of the energy to the acceptor, thus producing 665 nm emission signal. When the compound is added to block the PD1/PD-L1 interaction, only 620 nm emission light was detected. The inhibitory effect of the compound was determined by analyzing the ratio of 665 nm/620 nm. Tag 1-PD-L1 was diluted with Diluent buffer (cat #62DLBDDF) to a working concentration of 10 nM, Tag 2-PD-1 was diluted with Diluent buffer to a working concentration of 500 nM, and Anti-Tag1-Eu^3+ was diluted with detection buffer (cat #62DB1FDG) by 1:100, Anti-Tag2-XL 665 was diluted with detection buffer by 1:20, and the test compound was diluted with Diluent buffer to a final concentration of 2×. In a 384-well plate, 2 μL of compound was added to each well, and then 4 μL of Tag 1-PD-L1, 4 μL of Tag 2-PD-1 were added and incubated at room temperature for 15 minutes. 5 μL Anti-Tag1-Eu^3+ and 5 μL Anti-Tag2-XL 665 were added and incubated overnight at room temperature, and detected with BioTek Synergy™ Neo2 Multifunctional Microplate Reader to obtain the ratio of 665 nm/620 nm. The IC50 curve was fitted by GraphPad Prism 5.02.

PD-L1, sequence (Q9NZQ7 19-238): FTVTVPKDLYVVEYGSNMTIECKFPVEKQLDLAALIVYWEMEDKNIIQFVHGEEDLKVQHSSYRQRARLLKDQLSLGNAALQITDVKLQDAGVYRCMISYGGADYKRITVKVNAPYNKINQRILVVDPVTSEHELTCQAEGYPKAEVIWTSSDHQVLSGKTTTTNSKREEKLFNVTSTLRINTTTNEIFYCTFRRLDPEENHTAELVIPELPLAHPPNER

Q: With `COc1nc(OCc2cccc(-c3cccc(COc4ccc(CN[C@H](C(=O)O)[C@@H](C)O)c(OC)n4)c3C)c2C)ccc1CN[C@H](C(=O)O)[C@@H](C)O` [Compound 51] as the compound, how does the IC50 read?
A: < 10 nM

Q: With `COc1nc(OCc2cccc(-c3cccc(COc4ccc(CN5CC[C@@H](NC(C)=O)C5)c(OC)n4)c3C)c2C)ccc1CN1CC[C@@H](NC(C)=O)C1` [Compound 52] as the compound, how does the IC50 read?
A: 10 to 100 nM

Q: How did the IC50 turn out when `COc1nc(OCc2cccc(-c3cccc(COc4ccc(CN5CCCC(C(N)=O)C5)c(OC)n4)c3C)c2C)ccc1CN1CCCC(C(N)=O)C1` (centres unmarked) [Compound 53] was run?
A: 100 to 1000 nM

Q: How did the IC50 turn out when `COc1nc(OCc2cccc(-c3cccc(COc4ccc(CN5CC[C@H](NC(C)=O)C5)c(OC)n4)c3C)c2C)ccc1CN1CC[C@H](NC(C)=O)C1` [Compound 54] was run?
A: 10 to 100 nM

Q: Which IC50 does the source give for `COc1nc(OCc2cccc(-c3cccc(COc4ccc(CNC5CNC(=O)C5)c(OC)n4)c3C)c2C)ccc1CNC1CNC(=O)C1` (centres unmarked) [Compound 55] here?
A: 10 to 100 nM

Q: For `COc1nc(OCc2cccc(-c3cccc(COc4ccc(CN5C[C@@H](O)C[C@H]5C(=O)O)c(OC)n4)c3C#N)c2C)ccc1CN1C[C@@H](O)C[C@H]1C(=O)O` [Compound 56], which IC50 is on record?
A: < 10 nM

Q: For `COc1nc(OCc2cccc(-c3cccc(COc4ccc(CN5C[C@@H](O)C[C@H]5C(=O)O)c(OC)n4)c3Cl)c2Cl)ccc1CO` [Compound 57], which IC50 is on record?
A: 10 to 100 nM

Q: For `COc1nc(OCc2cccc(-c3cccc(COc4ccc(CN5C[C@@H](O)C[C@H]5C(=O)O)c(OC)n4)c3Cl)c2Cl)ccc1CN1CC[C@H](O)C1` [Compound 58], which IC50 is on record?
A: < 10 nM

Q: How did the IC50 turn out when `COc1nc(OCc2cccc(-c3cccc(COc4ccc(CN5CCC(CC#N)CC5)c(OC)n4)c3C)c2C)ccc1CN1CCC(CC#N)CC1` [Compound 59] was run?
A: 10 to 100 nM

Q: With `COc1nc(OCc2cccc(-c3cccc(COc4ccc(CN5CCC6(CCC(=O)N6)C5)c(OC)n4)c3C)c2C)ccc1CN1CCC2(CCC(=O)N2)C1` (centres unmarked) [Compound 60] as the compound, how does the IC50 read?
A: < 10 nM

Q: How did the IC50 turn out when `COc1nc(OCc2cccc(-c3cccc(COc4ccc(CN5CC(CC#N)C5)c(OC)n4)c3C)c2C)ccc1CN1CC(CC#N)C1` [Compound 61] was run?
A: 10 to 100 nM

Q: Which IC50 does the source give for `COc1nc(OCc2cccc(-c3cccc(COc4ccc(CN5CC[C@H](O)C5)c(OC)n4)c3Cl)c2Cl)ccc1CN1CC[C@H](O)C1` [Compound 62] here?
A: < 10 nM

Q: How did the IC50 turn out when `COc1nc(OCc2cccc(-c3cccc(COc4ccc(CN5CC(C(N)=O)C5)c(OC)n4)c3C)c2C)ccc1CN1CC(C(N)=O)C1` [Compound 63] was run?
A: < 10 nM

Q: `COc1nc(OCc2cccc(-c3cccc(COc4ccc(CNC5CCOC5=O)c(OC)n4)c3C)c2C)ccc1CNC1CCOC1=O` (centres unmarked) [Compound 64] was tested. Which IC50 did it give?
A: 10 to 100 nM

Q: How did the IC50 turn out when `COc1nc(OCc2cccc(-c3cccc(COc4ccc(CN5CC(O)C(CC#N)C5)c(OC)n4)c3C)c2C)ccc1CN1CC(O)C(CC#N)C1` (centres unmarked) [Compound 65] was run?
A: < 10 nM

Q: For `COc1nc(OCc2cccc(-c3cccc(COc4ccc(CN5C[C@@H](O)C[C@H]5C(=O)O)c(OC)n4)c3F)c2C)ccc1CN1C[C@@H](O)C[C@H]1C(=O)O` [Compound 66], which IC50 is on record?
A: < 10 nM

Q: For `COc1nc(OCc2cccc(-c3cccc(COc4ccc(CNC(CCO)C(=O)O)c(OC)n4)c3C)c2C)ccc1CNC(CCO)C(=O)O` (centres unmarked) [Compound 67], which IC50 is on record?
A: < 10 nM

Q: With `COc1nc(OCc2cccc(-c3cccc(COc4ccc(CNC(CO)CO)c(OC)n4)c3Cl)c2Cl)ccc1CNC(CO)CO` [Compound 68] as the compound, how does the IC50 read?
A: < 10 nM

Q: With `COc1nc(OCc2cccc(-c3cccc(COc4ccc(CN5CCCCC5C(=O)O)c(OC)n4)c3Cl)c2Cl)ccc1CN1CCCCC1C(=O)O` (centres unmarked) [Compound 70] as the compound, how does the IC50 read?
A: < 10 nM

Q: With `COc1nc(OCc2cccc(-c3cccc(COc4ccc(CN5C[C@H](O)[C@@H](O)C5)c(OC)n4)c3Cl)c2Cl)ccc1CN1C[C@H](O)[C@@H](O)C1` [Compound 71] as the compound, how does the IC50 read?
A: < 10 nM

Q: How did the IC50 turn out when `COc1nc(OCc2cccc(-c3cccc(COc4ccc(CN(CCO)CCO)c(OC)n4)c3Cl)c2Cl)ccc1CN(CCO)CCO` [Compound 72] was run?
A: < 10 nM

Q: With `COc1nc(OCc2cccc(-c3cccc(COc4ccc(CNCC(N)=O)c(OC)n4)c3Cl)c2Cl)ccc1CNCC(N)=O` [Compound 73] as the compound, how does the IC50 read?
A: < 10 nM

Q: With `COc1nc(OCc2cccc(-c3cccc(COc4ccc(CN5CC(NC(C)=O)C5)c(OC)n4)c3Cl)c2Cl)ccc1CN1CC(NC(C)=O)C1` [Compound 74] as the compound, how does the IC50 read?
A: < 10 nM
